Experiment: Particle size of temozolomide drug substance entering the composition
Format: physicochemical
Description: Characteristically, the composition of temozolomide according to the invention further contains at least one agent controlling the solid state of temozolomide in suspension. Indeed and during the development of the compositions of the invention, the Applicants observed an erratic recrystallisation of temozolomide after reconstitution of some suspensions with water. […] The recrystallisation triggered dose inhomogeneity within the suspensions, with large crystals settling down the bottom of the bottle or container. Furthermore, large crystals tended to clog the syringe for oral administration. This recrystallisation phenomenon was also observed in compositions containing povidone, the excipient used in the hospital-compounded formulations developed by Trissel et al. and Ambados et al.

With `Cn1nnc2c(C(N)=O)ncn2c1=O` [temozolomide, 3-methyl-4-oxoimidazo[5,1-d][1,2,3,5]tetrazine-8-carboxamide] the “particle size d90” value was < 100 μm.
